From US20230165979A1, “COPPER-CONTAINING THERAGNOSTIC COMPOSITIONS AND METHODS OF USE” (Cornell University, priority 2020, published 2023)

What was measured:
[1] = Stability of the reformulated radioligand solution at 25° C.; type: physicochemical; conditions: after reformulation, radioHPLC
Method: The stability of the reformulated [^64Cu]Cu-RPS-085 solution was determined in triplicate at 25° C. Three 1 mL samples at a radioactivity concentration of approximately 10 MBq/mL and radiochemical purity >99% were transferred to Eppendorf tubes (VWR, USA). The samples were incubated for 24 h at 25° C. in an Eppendorf ThermoMixer® C (VWR, USA). Radiochemical purity was determined by analytical reverse phase (radio)HPLC and expressed as a fraction of the purity of the sample prior to incubation. After reformulation, [^64Cu]Cu-RPS-085 was stable at room temperature for more than 24 h.

Plasma stability = type: in vitro ADME, human; conditions: 37° C.
Method: The plasma stability of [^67Cu]Cu-RPS-085 was determined according to previously described methods (Alt, et al., Mol Pharmaceutics. 2014; 11: 2855-63). Briefly, frozen human plasma was purchased from Sigma Aldrich (USA), thawed at 37° C., and 200 μL aliquots were transferred to Eppendorf tubes. A 100 μL aliquot of [^67Cu]Cu-RPS-085 in 10% EtOH/saline was added to each tube, and the mixture was shaken at 300 rpm for 24 h at 37° C. on an Eppendorf ThermoMixer® C (VWR, USA). The experiment was performed in triplicate. The proteins were precipitated by addition of 600 μL acetonitrile. The samples were centrifuged at 13500 rpm for 3 min in an Eppendorf 5424-R Centrifuge. The supernatant was analyzed by analytical reverse phase (radio)HPLC as described above. After 24 h incubation in human plasma, [^67Cu]Cu-RPS-085 was 97.4±0.4% intact. The lone radiochemical impurity was an unidentified fragment of the parent compound.

LNCaP xenografts = assay: Tissue biodistribution in mice bearing LNCaP xenografts; type: in vivo, male Balb/C nu/nu mice; conditions: for activity in kidneys / tumor uptake: i.v., ±SEM
Method: (§1) All animal studies were approved by the Institutional Animal Care and Use Committee of Weill Cornell Medicine and were undertaken in accordance with the guidelines set forth by the USPHS Policy on Humane Care and Use of Laboratory Animals. The mice were housed under standard conditions in approved facilities with 12 h light/dark cycles. Food and water was provided ad libitum throughout the course of the studies. Male BALB/c athymic nu/nu mice were purchased from the Jackson Laboratory (USA). Prior to inoculation, LNCaP cells were suspended at a density of 4×10^7 cells/mL in a 1:1 mixture of PBS (VWR, USA):Matrigel (BD Biosciences, USA). Each mouse was injected subcutaneously in the left flank with 0.25 mL of the cell suspension. The animals were monitored twice weekly until palpable tumors emerged.
When tumor size reached approximately 200 mm^3, mice (n=4/time point) were administered 3.8±0.1 MBq [^64Cu]Cu-RPS-085 or 0.8±0.005 MBq [^67Cu]Cu-RPS-085 by intravenous injection. The total mass dose received by each animal was approximately 50 ng (31 pmol) and approximately 28 ng (17 pmol) for the [^64Cu]Cu-RPS-085 and [^67Cu]Cu-RPS-085 studies, respectively. The mice were sacrificed at 4 h, 24 h, or 48 h p.i. ([^64Cu]Cu-RPS-085) or 4 h, 24 h, and 96 h ([^67Cu]Cu-RPS-085). A blood sample was collected, and the following tissues were collected and weighed wet using a digital balance: heart, lungs, liver, stomach, small intestine, large intestine, spleen, pancreas, kidneys, muscle, bone, and tumor. The tissues were counted on a Wizard2 Automatic Gamma Counter (Perkin Elmer, USA) against a 1% injected dose standard. The counts were corrected for decay and for activity injected, and tissue uptake was expressed as percent injected dose per gram (% ID/g). Standard error of the mean (SEM) was calculated for each data point. Statistical analyses were performed using an unpaired t test with GraphPad Prism software. A P value of less than 0.05 was considered significant. The concentration of [67Cu]Cu-RPS-085 found in blood, heart, lungs, liver, small intestine, large intestine, stomach, spleen, pancreas, kidneys, muscle, and bone at 4 h, 24 h, and 96 h, post injection (n=4 per time point) is shown in Table 1 below. Published values for [177Lu]Lu-RPS-063 are shown for comparison; all concentrations are expressed as percent injected dose per organ.

LNCaP xenograft tumors = assay: microPET/CT imaging in LNCaP xenograft mouse model; type: in vivo, male BALB/c athymic nu/nu mice
Method: as §1
When tumor size was in the range 200-500 mm^3, mice (n=4) were administered 21.2±0.5 MBq [^64Cu]Cu-RPS-085 by intravenous injection. The total mass dose received by each animal was approximately 300 ng (185 pmol). The mice were imaged under isoflurane anesthesia at 1 h, 3 h, 6 h, 24 h, and 48 h post injection (p.i.) by microPET/CT (Inveon™; Siemens Medical Solutions, USA). Total acquisition time was 30 min. A CT scan was obtained immediately before the PET acquisition for both anatomical co-registration and attenuation correction. Images were reconstructed using the Inveon™ software provided by the vendor.

With `CC12CNCCNCC(NC(=O)CCCC(=O)NCCCC[C@H](NC(=O)CCOCCOCCOCCn3cc(-c4cccc(NC(=O)NCCCC[C@H](NC(=O)N[C@@H](CCC(=O)O)C(=O)O)C(=O)O)c4)nn3)C(=O)N[C@@H](CCCCNC(=O)Cc3ccc(I)cc3)C(=O)O)(CNCCNC1)C[N@]1CC[N@](C2)[Cu]1` [[^64/67Cu]Cu-RPS-085] the “time stable in solution at room temperature” value [1] was “more than 24 h” and the “time stable in human plasma” value (Plasma stability) was “more than 24 h”.
With `CC12CNCCNCC(NC(=O)CCCC(=O)NCCCC[C@H](NC(=O)CCOCCOCCOCCn3cc(-c4cccc(NC(=O)NCCCC[C@H](NC(=O)N[C@@H](CCC(=O)O)C(=O)O)C(=O)O)c4)nn3)C(=O)N[C@@H](CCCCNC(=O)Cc3ccc(I)cc3)C(=O)O)(CNCCNC1)CNCCNC2.[64Cu+2]` [[^64Cu]Cu-RPS-085] the “time stable in solution at room temperature” value [1] was “more than 24 h”, the tumor-to-blood ratio (LNCaP xenografts; 4 h p.i.) was 230±33 and the tumor-to-kidney ratio (LNCaP xenografts; 4 h p.i.) was 0.9±0.2. For the same molecule, the activity in kidneys (LNCaP xenografts; 4 h p.i.) was 13.7±2.3 % ID/g, the tumor uptake (LNCaP xenografts; 4 h p.i.) was 12.9±1.4 % ID/g and the tumor-to-kidney ratio (LNCaP xenografts; 24 h p.i.) was 3.4±0.7. The activity in kidneys (LNCaP xenografts; 24 h p.i.) was 2.4±0.4 % ID/g, the tumor uptake (LNCaP xenografts; 24 h p.i.) was 8.3±0.8 % ID/g and the tumor-to-kidney ratio (LNCaP xenografts; 48 h p.i.) was 6.1±0.8. For the same molecule, the activity in kidneys (LNCaP xenografts; 48 h p.i.) was 1.6±0.1 % ID/g, the tumor uptake (LNCaP xenografts; 48 h p.i.) was 9.8±1.3 % ID/g and the tumor-to-muscle ratio (LNCaP xenografts; all observed time points) was “greater than 500”. The “activity in all other tissues including liver” value (LNCaP xenografts; all time points (4, 24, 48 h p.i.)) was “less than 0.5 % ID/g”, the tumor-to-blood ratio (LNCaP xenografts; subsequently (after 4 h p.i.)) was “exceeded 400” and the background tissue activity (LNCaP xenograft tumors; microPET/CT) was “low”. For the same molecule, the “primary route of excretion” value (LNCaP xenograft tumors; microPET/CT) was “Renal clearance”, the “time by which only tumors could be visualized” value (LNCaP xenograft tumors; microPET/CT) was ≤ 24 h and the “time by which uptake in tumors exceeded kidneys” value (LNCaP xenograft tumors; mouse, in vivo) was ≤ 6 h p.i. The “time of greatest activity in the tumor” value (LNCaP xenograft tumors; mouse, in vivo) was 3 h p.i and the “activity in the tumor over time” value (LNCaP xenograft tumors; over the 48 h imaging window, semi-quantitative, ROIs) was “virtually stable”.
